Some test systems named below: CAKI-1 renal; OVCAR-5 ovarian; COLO 205 colon; NCI/ADR-RES ovarian; NCI-H23 lung; A549 NSCLC; SK-MEL-5 melanoma; CCRF-CEM leukemia; A498 renal; HCT-116 colon.
Holding throughout (assay): NCI tumour cell line growth inhibition, 48 h

Drawing on PubChem BioAssay (NCI), this text covers GI50 and TGI for 8 compounds.

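Exposure lasted 48 hours, with cells grown in 96-well plates and compounds tested at five concentrations. Abbreviation: GI50, concentration required for 50% inhibition of growth. TGI: total growth inhibition.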 Some results are limits rather than exact numbers.

Consider `Nc1n[nH]c2cc(F)c([C@@H]3Nc4c(F)cc5[nH]ncc5c4[C@H]4C5CCC(C5)[C@@H]34)cc12` (stereo partly specified), for which the GI50 in the assay with CAKI-1 renal was 0.137 µM; in the assay on OVCAR-5 ovarian it was 0.175 µM; in the assay with COLO 205 colon, 0.124 µM; in the assay on NCI/ADR-RES ovarian, 0.14 µM; in the assay with NCI-H23 lung, 0.158 µM; in the assay with A549 NSCLC, 0.134 µM. Also, the GI50 in the assay on SK-MEL-5 melanoma is 0.114 µM; in the assay with CCRF-CEM leukemia, 0.127 µM; in the assay with A498 renal, 0.063 µM; with HCT-116 colon, 0.118 µM. Moreover, the TGI in the assay with CAKI-1 renal came out at 3.38 µM; in the assay with OVCAR-5 ovarian, 8.52 µM; in the assay with COLO 205 colon, 1.03 µM; in the assay on NCI/ADR-RES ovarian it was 5.67 µM; with NCI-H23 lung, 5.76 µM; with A549 NSCLC, 13.9 µM. Besides, the TGI was determined as 0.538 µM in the assay with SK-MEL-5 melanoma, 28.7 µM with CCRF-CEM leukemia, 0.212 µM in the assay with A498 renal and 1.56 µM in the assay with HCT-116 colon.
`COc1ccc(OC)c(-c2nc3sc(C)cn3c2/C=C2\C(=O)N(C)c3ccccc32)c1`: the GI50 was 23.8 µM in the assay on CAKI-1 renal; 44.9 µM in the assay on OVCAR-5 ovarian; 25.8 µM in the assay with COLO 205 colon; 15.7 µM in the assay with NCI/ADR-RES ovarian; 24.4 µM in the assay on NCI-H23 lung; 28.4 µM in the assay with A549 NSCLC. Besides, the GI50 in the assay on SK-MEL-5 melanoma is 14 µM; in the assay with CCRF-CEM leukemia, 5.8 µM; with A498 renal, 29.3 µM; in the assay with HCT-116 colon, 18.6 µM. Moreover, the TGI with CAKI-1 renal is 65.4 µM; in the assay on OVCAR-5 ovarian, over 100 µM; in the assay on COLO 205 colon it was 68 µM; in the assay on NCI/ADR-RES ovarian, 54.7 µM; with NCI-H23 lung, 59.3 µM; in the assay on A549 NSCLC, over 100 µM. In addition, the TGI with SK-MEL-5 melanoma came to 27.3 µM; in the assay with CCRF-CEM leukemia, 83 µM; with A498 renal, 70.6 µM; with HCT-116 colon, 37.1 µM.
Consider `COc1ccc(C#CC2=C(Br)C(=O)OC2)cc1`, for which the GI50 with CAKI-1 renal was 1.76 µM; in the assay with OVCAR-5 ovarian, 14.7 µM; in the assay with COLO 205 colon, 2.56 µM; in the assay with NCI/ADR-RES ovarian, 12 µM; in the assay on NCI-H23 lung, 10.6 µM; with A549 NSCLC it was 9.43 µM. Moreover, the GI50 was 7.58 µM in the assay on SK-MEL-5 melanoma, 3.98 µM in the assay with CCRF-CEM leukemia, 0.873 µM in the assay on A498 renal and 1.4 µM in the assay on HCT-116 colon. For the same compound, the TGI came to 6.61 µM with CAKI-1 renal; 28.8 µM with OVCAR-5 ovarian; 29.1 µM in the assay on COLO 205 colon; 33.6 µM in the assay with NCI/ADR-RES ovarian; 25.3 µM in the assay with NCI-H23 lung; 28.6 µM in the assay with A549 NSCLC. In addition, the TGI with SK-MEL-5 melanoma is 14.3 µM; with CCRF-CEM leukemia, over 50 µM; with A498 renal, 12 µM; with HCT-116 colon, 35.7 µM.
As for `COc1ccc(C(=O)c2cc(C)c(OC)c(C)c2)c(OC)c1OC(=O)C(Cl)Cl`, the GI50 with CAKI-1 renal is 0.338 µM; with OVCAR-5 ovarian it was 5.51 µM; with COLO 205 colon, 6.74 µM; in the assay on NCI/ADR-RES ovarian, 0.0324 µM; in the assay on NCI-H23 lung it was 0.0681 µM; with A549 NSCLC, 0.361 µM. The GI50 in the assay on SK-MEL-5 melanoma was 0.0521 µM; in the assay on CCRF-CEM leukemia, 0.0386 µM; in the assay with A498 renal, 1.74 µM; in the assay with HCT-116 colon it was 0.0976 µM. Further, the TGI with CAKI-1 renal is over 100 µM; with OVCAR-5 ovarian it was over 100 µM; with COLO 205 colon, 32.4 µM; with NCI/ADR-RES ovarian it was over 100 µM; in the assay with NCI-H23 lung, over 100 µM; in the assay on A549 NSCLC, over 100 µM. Besides, the TGI in the assay on SK-MEL-5 melanoma is 0.326 µM; in the assay on CCRF-CEM leukemia, over 100 µM; in the assay with A498 renal it was 5.89 µM; in the assay with HCT-116 colon, over 100 µM.
As to `CN1CCC(n2cnc(-c3ccc(F)cc3)c2-c2ccnc(Nc3ccccc3)n2)CC1`, the GI50 was 1.79 µM in the assay on CAKI-1 renal; 15 µM with OVCAR-5 ovarian; 3.34 µM with COLO 205 colon; 7.65 µM in the assay with NCI/ADR-RES ovarian; 16.3 µM in the assay on NCI-H23 lung; 2.81 µM in the assay with A549 NSCLC. The GI50 is 4.14 µM in the assay on SK-MEL-5 melanoma, 12.1 µM with CCRF-CEM leukemia, 7.77 µM in the assay with A498 renal and 7.27 µM in the assay on HCT-116 colon. The TGI was over 15.3 µM in the assay on CAKI-1 renal; over 25 µM in the assay with OVCAR-5 ovarian; 7.19 µM in the assay with COLO 205 colon; over 25 µM with NCI/ADR-RES ovarian; over 25 µM in the assay on NCI-H23 lung; over 25 µM in the assay on A549 NSCLC. Besides, the TGI in the assay with SK-MEL-5 melanoma is 9.43 µM; in the assay with CCRF-CEM leukemia, over 25 µM; in the assay on A498 renal, over 25 µM; with HCT-116 colon, over 25 µM.
As to `N#CC1=C(N)Oc2c(ccc3cccnc23)C1c1ccccc1` (stereo unspecified), the TGI was over 100 µM in the assay on CAKI-1 renal; over 100 µM with OVCAR-5 ovarian; 13.2 µM in the assay with COLO 205 colon; 12.4 µM in the assay on NCI/ADR-RES ovarian; over 28.5 µM in the assay on NCI-H23 lung; over 100 µM in the assay on A549 NSCLC. For the same compound, the TGI amounted to 13.9 µM in the assay with SK-MEL-5 melanoma, 13.4 µM in the assay with CCRF-CEM leukemia, 16.9 µM in the assay on A498 renal and 21.3 µM in the assay with HCT-116 colon. The GI50 with NCI/ADR-RES ovarian is 0.464 µM.
As to `COc1cc2c3c(n(CCCN=[N+]=[N-])c(=O)c2cc1OC)-c1ccc(NC(C)=O)cc1C3=O`, the GI50 is 8.39 µM in the assay with CAKI-1 renal; over 50 µM in the assay on OVCAR-5 ovarian; over 50 µM with COLO 205 colon; over 50 µM in the assay on NCI/ADR-RES ovarian; over 50 µM in the assay with NCI-H23 lung; over 50 µM in the assay with A549 NSCLC. Besides, the GI50 was 11.2 µM in the assay on SK-MEL-5 melanoma, over 50 µM in the assay on CCRF-CEM leukemia, over 50 µM in the assay with A498 renal and over 50 µM in the assay on HCT-116 colon. Also, the TGI in the assay with CAKI-1 renal, with OVCAR-5 ovarian, in the assay on COLO 205 colon, in the assay with NCI/ADR-RES ovarian, with NCI-H23 lung and in the assay on A549 NSCLC was over 50 µM each time. Besides, the TGI with SK-MEL-5 melanoma, with CCRF-CEM leukemia, in the assay on A498 renal and in the assay on HCT-116 colon was over 50 µM each time.
Take `CCOC(=O)CC1C(CNC(=O)NC)OC(n2cnc3c(NC(=O)Nc4ccccc4)ncnc32)C1O[Si](C)(C)C(C)(C)C` (stereo unspecified): the GI50 in the assay with CAKI-1 renal is 29.7 µM; with OVCAR-5 ovarian it was 31.1 µM; with COLO 205 colon, 3.84 µM; with NCI/ADR-RES ovarian it was over 100 µM; in the assay with NCI-H23 lung it was 33.3 µM; in the assay with A549 NSCLC, 4.18 µM. The GI50 in the assay on SK-MEL-5 melanoma was 4.34 µM; in the assay on CCRF-CEM leukemia it was 6.69 µM; with A498 renal it was 3.35 µM; in the assay with HCT-116 colon, 3.2 µM. Moreover, the TGI is over 100 µM in the assay on CAKI-1 renal; over 100 µM in the assay on OVCAR-5 ovarian; over 100 µM in the assay with COLO 205 colon; over 100 µM in the assay with NCI/ADR-RES ovarian; over 100 µM in the assay on NCI-H23 lung; 19.2 µM with A549 NSCLC. The TGI is over 100 µM in the assay with SK-MEL-5 melanoma, 88.6 µM in the assay on CCRF-CEM leukemia, 17.1 µM in the assay with A498 renal and 16.1 µM in the assay on HCT-116 colon.
